Assay results: PubChem BioAssay (NCI)
Values joined by “and” are separate entries in the source; they are usually repeats but may differ in a detail not shown here. Identical values can stand only once.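 Tested at 5 concentrations; 48 h exposure; 96-well plates; endpoints linearly interpolated, else capped at highest concentration. Here, GI50 denotes the concentration required for 50% inhibition of growth. The concentration for full growth arrest is given as TGI.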

Experiments:
Experiment in all cases: NCI-60 cell line screen, 48 h
[1] = tested on: HCC-2998 colon
[2] = tested on: M19-MEL melanoma
[3] = tested on: NCI-H226 lung
[4] = tested on: NCI-H23 lung
[5] = tested on: NCI-H460 lung
[6] = tested on: TK-10 renal
[7] = tested on: UO-31 renal
[8] = tested on: DLD-1 colon
[9] = tested on: SNB-75 CNS
[10] = tested on: MDA-MB-231 breast

SMILES | TGI [1] | TGI [2] | TGI [3] | TGI [4] | TGI [5] | TGI [6] | TGI [7] | TGI [8] | TGI [9] | GI50 [8] | GI50 [1] | GI50 [2] | GI50 [4] | GI50 [10] | TGI [10] | GI50 [3] | GI50 [5] | GI50 [9] | GI50 [6] | GI50 [7]
COC(=O)C(=O)C(C(=O)C(=O)Nc1ccccc1C(N)=O)c1nc2ccc(C(=O)c3ccccc3)cc2[nH]c1=O (configuration not stated) | > 100 µM | > 100 µM | > 100 µM | > 100 µM | > 100 µM | > 100 µM | > 100 µM | – | – | – | – | – | – | – | – | – | – | – | – | –
Cc1ns/c(=N\C(=S)N(C)C)n1C | > 100 µM | – | > 100 µM | > 100 µM | > 100 µM | > 100 µM | > 100 µM | > 100 µM | > 100 µM | – | – | – | – | – | – | – | – | – | – | –
C/C(=N/Nc1ccc([N+](=O)[O-])cc1[N+](=O)[O-])C(CC(C(=O)Nc1ccccc1C)/C(C)=N\Nc1ccc([N+](=O)[O-])cc1[N+](=O)[O-])C(=O)Nc1ccccc1C (configuration not stated) | 60.8 µM | 28.1 µM | 19.3 µM | 25.5 µM | 36.4 µM | 60.1 µM | 39.9 µM | > 100 µM | 29.4 µM | – | – | – | – | – | – | – | – | – | – | –
O=C1/C(=C/c2ccccc2)CN(C(=O)Oc2ccc([N+](=O)[O-])cc2)C/C1=C\c1ccccc1 | 5.99 µM and 3.3 µM | 3.56 µM and 2.75 µM | – | – | – | – | – | 4.83 µM and 3.45 µM | – | 1.2 µM | 1.33 µM | 1.26 µM | 9.79 µM | – | – | – | – | – | – | –
O=C1CC2Sc3ccccc3N=C2N1c1ccc(Cl)cc1Cl (configuration not stated) | > 100 µM | > 100 µM | > 100 µM | > 100 µM | > 100 µM | > 100 µM | > 100 µM | > 100 µM | > 100 µM | – | – | – | – | – | – | – | – | – | – | –
O=C(OCc1nc2ccc(Br)cc2c(=O)n1-c1ccccc1)c1ccccc1O | > 100 µM | > 100 µM | > 100 µM | > 100 µM | > 100 µM | > 100 µM | > 100 µM | > 100 µM | > 100 µM | – | – | – | – | – | – | – | – | – | – | –
O=c1[nH]c(-c2ccccn2)nc2sc3c(c12)CCCCCC3 | > 100 µM | – | > 100 µM | > 100 µM | > 100 µM | > 100 µM | > 100 µM | – | > 100 µM | – | 26.2 µM | – | 11 µM | 8.76 µM | > 100 µM | > 100 µM | 1.91 µM | 85.1 µM | > 100 µM | 5.87 µM
N#CC1(C#N)C2C=CC(C3CCC=C32)C1(C#N)C#N (configuration not stated) | > 10 µM | – | > 10 µM | > 10 µM | > 10 µM | > 9.01 µM | > 5.88 µM | – | > 10 µM | – | – | – | – | – | > 10 µM | – | – | – | – | –
N#CC(=C=[N-])[n+]1ccc(Cl)cc1 | – | 27.8 µM | 66.7 µM | 29.9 µM | 55.5 µM | 45.8 µM | 59.9 µM | 24.4 µM | 32.2 µM | – | – | – | – | – | – | – | – | – | – | –
CN(C)c1ccc(Sc2ccc3nc(N)nc(N)c3c2)cc1 | 4.84 µM | – | 18.6 µM | 18 µM | 2.71 µM | 15.5 µM | 13.6 µM | – | 16.3 µM | – | 0.848 µM | – | 0.665 µM | 2.23 µM | 14.1 µM | 4.21 µM | 0.174 µM | 2.14 µM | 4.11 µM | 1.12 µM
C#Cc1ccc(-n2c(/C=C/c3cc(OC)c(OC)c(OC)c3)nc3ncccc3c2=O)cc1 | > 100 µM | – | > 100 µM | > 100 µM | 25.3 µM | 62.9 µM | > 100 µM | – | > 100 µM | – | 27.5 µM | – | 17.3 µM | 5.53 µM | > 100 µM | 12.9 µM | 4.11 µM | 3.88 µM | 17.3 µM | 4.09 µM
CCSc1nc(N)c2cnn(C)c2n1 | 92.1 µM | – | 69.2 µM | > 100 µM | > 100 µM | > 100 µM | > 100 µM | – | > 100 µM | – | 25.4 µM | – | 41.5 µM | 25.1 µM | 71 µM | 27.4 µM | 31.6 µM | 68.9 µM | 34.1 µM | 38.3 µM
CC1(C)CC2(C)OC2C2(C1)N=NC(=Nc1ccccc1)O2 (configuration not stated) | 26.6 µM | – | 29.6 µM | 29.9 µM | 31.5 µM | 8.31 µM | 4.02 µM | – | 30.4 µM | – | 13.2 µM | – | 5.93 µM | 2.61 µM | 7.75 µM | 10.7 µM | 11.3 µM | 16.4 µM | 3.44 µM | 1.67 µM
Cn1c(COC(=O)NCCN2CCOCC2)nc2c(N3CCOCC3)nc(-c3ccccc3)nc21 | 3.41 µM | – | 20.3 µM | 4.1 µM | 2.77 µM | 2.88 µM | 2.18 µM | – | 2.67 µM | – | 1.62 µM | – | 1.84 µM | 1.3 µM | 2.88 µM | 4.38 µM | 1.25 µM | 1.11 µM | 1.48 µM | 0.838 µM
CCNC(=O)Oc1ccc(/C(=C(\C)c2ccc(Cl)cc2)c2ccc(OCCN3CCCCC3)cc2)cc1 | 13.4 µM | – | 36.7 µM | 19.7 µM | 4.64 µM | 34.6 µM | 5.45 µM | – | 18.6 µM | – | 3.53 µM | – | 5.1 µM | 3.55 µM | 11.5 µM | 14.4 µM | 2.19 µM | 2.67 µM | 19.5 µM | 2.05 µM
C[C@H](NC(=O)CCC(F)(F)F)C(=O)N[C@@H]1C(=O)N(CCO)c2ncccc2-c2ccccc21 | > 100 µM | – | > 100 µM | > 100 µM | > 100 µM | > 100 µM | > 100 µM | – | > 100 µM | – | > 100 µM | – | > 100 µM | > 100 µM | > 100 µM | > 100 µM | > 100 µM | > 100 µM | > 100 µM | > 100 µM
Clc1ccccc1C1=NN(c2ccccc2)C2c3cc(Br)ccc3OCC12 (configuration not stated) | > 100 µM | > 100 µM | – | > 100 µM | > 100 µM | > 100 µM | > 100 µM | > 100 µM | > 100 µM | – | – | – | – | – | – | – | – | – | – | –
COc1cc(C(=O)N/N=C/c2cccc([N+](=O)[O-])c2)cc(OC)c1OC | 59.5 µM | – | > 100 µM | > 100 µM | > 100 µM | > 100 µM | > 100 µM | – | 56.1 µM | – | 7.95 µM | – | 5.96 µM | 26.1 µM | > 100 µM | 18 µM | 3.23 µM | 6.92 µM | 25.2 µM | 5.2 µM
